Measured values taken from BindingDB's records for doi:10.7270/Q2WD3Z10 (Burnham Center For Chemical Genomics, 2010).

Target: NACHT, LRR and PYD domains-containing protein 3 (Homo sapiens, UniProt Q96P20)
Assay: NALP3 inhibitors in yeast, dose response, luminescent (AID 488799)

Sequence of NACHT, LRR and PYD domains-containing protein 3 (Q96P20 whole entry, the tested form may be a part): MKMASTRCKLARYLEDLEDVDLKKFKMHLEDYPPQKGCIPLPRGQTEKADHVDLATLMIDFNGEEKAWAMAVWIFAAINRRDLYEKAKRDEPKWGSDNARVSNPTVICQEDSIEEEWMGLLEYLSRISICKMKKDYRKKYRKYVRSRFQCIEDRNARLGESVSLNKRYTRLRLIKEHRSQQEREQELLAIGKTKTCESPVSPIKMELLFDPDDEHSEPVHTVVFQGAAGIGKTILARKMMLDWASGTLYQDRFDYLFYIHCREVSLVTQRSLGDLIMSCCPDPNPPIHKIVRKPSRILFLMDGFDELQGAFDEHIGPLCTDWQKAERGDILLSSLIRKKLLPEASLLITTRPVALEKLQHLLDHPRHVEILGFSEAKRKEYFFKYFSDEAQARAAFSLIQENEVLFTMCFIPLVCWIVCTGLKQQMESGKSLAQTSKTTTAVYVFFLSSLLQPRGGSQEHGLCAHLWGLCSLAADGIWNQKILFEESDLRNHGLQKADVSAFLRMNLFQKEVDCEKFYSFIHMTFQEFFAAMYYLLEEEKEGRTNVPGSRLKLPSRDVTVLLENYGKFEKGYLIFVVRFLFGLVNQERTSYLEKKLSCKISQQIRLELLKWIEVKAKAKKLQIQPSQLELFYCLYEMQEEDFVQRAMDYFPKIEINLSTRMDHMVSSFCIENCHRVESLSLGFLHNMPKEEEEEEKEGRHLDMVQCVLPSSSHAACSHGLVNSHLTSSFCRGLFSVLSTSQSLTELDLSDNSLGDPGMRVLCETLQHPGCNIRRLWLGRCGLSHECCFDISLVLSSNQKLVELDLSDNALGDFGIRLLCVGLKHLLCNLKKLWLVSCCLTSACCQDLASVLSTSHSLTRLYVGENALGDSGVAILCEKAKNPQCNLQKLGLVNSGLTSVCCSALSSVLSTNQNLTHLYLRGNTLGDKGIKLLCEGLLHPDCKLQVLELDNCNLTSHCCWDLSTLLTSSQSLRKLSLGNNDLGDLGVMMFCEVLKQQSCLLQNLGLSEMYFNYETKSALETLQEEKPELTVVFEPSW

Row | Structure (SMILES) | IC50
1 | Cc1csc2nc(=O)c(C(=O)NCCC3=CCCCC3)c(O)n12 | 4.07 µM
2 | O=C(NCCCc1ccccc1)c1c(O)n2ccsc2nc1=O [5-oxidanyl-7-oxidanylidene-N-(3-phenylpropyl)-[1,3]thiazolo[3,2-a]pyrimidine-6-carboxamide] | 9.61 µM
3 | O=C(NCCC1=CCCCC1)c1c(O)n2ccsc2nc1=O [SMR000811826] | 3.8 µM
4 | CCCCCC(=O)N1CCN(CCNC=C2C(=O)CC(c3ccco3)CC2=O)CC1 (stereo unspecified) [SMR000019406] | 7.3 µM
5 | C=CCc1c(C)nc(C)nc1N=NCc1ccccc1O [2-[(5-Allyl-2,6-dimethyl-pyrimidin-4-yl)-hydrazonomethyl]-phenol] | 45.5 µM
6 | O=C1C=CC(/N=N/c2ccc([N+](=O)[O-])cc2Cl)=CC1C(=O)Nc1cccc(Cl)c1 (stereo unspecified) [(3Z)-3-[(2-chloro-4-nitrophenyl)hydrazinylidene]-N-(3-chlorophenyl)-6-oxocyclohexa-1,4-diene-1-carboxamide] | 1.34 µM
